Organism: Rattus norvegicus
Assay: Open TG-GATES - Regimen: Daily Repeat
Type: toxicity, organism-based, Sprague-Dawley
Parameters: regimen Daily Repeat, gender Male, age 6 weeks
Details: in vivo, po, 3 mg/kg, route gavage, dose level Low; for APTT / Bas / Eos / Fbg / Hb / Ht / Lym / MCH / MCHC / MCV / Mono / Neu / PT / Plat / RBC / Ret / WBC: tissue Blood; for KIDNEY_L / KIDNEY_R / KIDNEY_TOTAL: tissue Kidney; for LIVER: tissue Liver; for A/G / ALP / ALT / AST / BUN / CRE / Ca / Cl / DBIL / GLC / IP / K / LDH / Na / PL / RALB / TBIL / TC / TG / TP / gamma-GTP: tissue Plasma

Nc1c2c(nc3ccccc13)CCCC2 [TACRINE]
TERMINAL_BW (72 h, time 3 day): 218.9 g
APTT (72 h, time 3 day): 21 s
Bas (72 h, time 3 day): 0%
Eos (72 h, time 3 day): 0.8%
Fbg (72 h, time 3 day): 309.2 mg/dL
Hb (72 h, time 3 day): 13.8 g/dL
Ht (72 h, time 3 day): 39.3%
Lym (72 h, time 3 day): 80.2%
MCH (72 h, time 3 day): 21 pg
MCHC (72 h, time 3 day): 35%
MCV (72 h, time 3 day): 60.1 fL
Mono (72 h, time 3 day): 2.8%
Neu (72 h, time 3 day): 15.2%
PT (72 h, time 3 day): 16.1 s
Plat (72 h, time 3 day): 115.7 x10_4/uL
RBC (72 h, time 3 day): 655.6 x10_4/ul
Ret (72 h, time 3 day): 5.8%
WBC (72 h, time 3 day): 128.8 x10_2/uL
KIDNEY_L (72 h, time 3 day): 0.9 g
KIDNEY_R (72 h, time 3 day): 1 g
KIDNEY_TOTAL (72 h, time 3 day): 1.9 g
LIVER (72 h, time 3 day): 10 g
A/G (72 h, time 3 day): 1.3
ALP (72 h, time 3 day): 1457.8 IU/L
ALT (72 h, time 3 day): 48.6 IU/L
AST (72 h, time 3 day): 78.4 IU/L
BUN (72 h, time 3 day): 17.8 mg/dL
CRE (72 h, time 3 day): 0.2 mg/dL
Ca (72 h, time 3 day): 10.8 mg/dL
Cl (72 h, time 3 day): 106.8 meq/L
DBIL (72 h, time 3 day): 0.004 mg/dL
GLC (72 h, time 3 day): 190.2 mg/dL
IP (72 h, time 3 day): 7.2 mg/dL
K (72 h, time 3 day): 4.2 meq/L
LDH (72 h, time 3 day): 313 IU/L
Na (72 h, time 3 day): 142 meq/L
PL (72 h, time 3 day): 168 mg/dL
RALB (72 h, time 3 day): 3.2 g/dL
TBIL (72 h, time 3 day): 0.016 mg/dL
TC (72 h, time 3 day): 85.6 mg/dL
TG (72 h, time 3 day): 111 mg/dL
TP (72 h, time 3 day): 5.6 g/dL
gamma-GTP (72 h, time 3 day): 1 IU/L
TERMINAL_BW ([…], time 7 day): 247.7 g
TERMINAL_BW ([…], time 14 day): 303.9 g
TERMINAL_BW ([…], time 28 day): 351.6 g
APTT ([…], time 7 day): 21.5 s
Bas ([…], time 7 day): 0%
Eos ([…], time 7 day): 1%
Fbg ([…], time 7 day): 301 mg/dL
Hb ([…], time 7 day): 13.7 g/dL
Ht ([…], time 7 day): 38.9%
Lym ([…], time 7 day): 81.6%
MCH ([…], time 7 day): 21.3 pg
MCHC ([…], time 7 day): 35.3%
MCV ([…], time 7 day): 60.3 fL
Mono ([…], time 7 day): 2.2%
Neu ([…], time 7 day): 14.6%
PT ([…], time 7 day): 16.1 s
Plat ([…], time 7 day): 112.9 x10_4/uL
RBC ([…], time 7 day): 645.2 x10_4/ul
Ret ([…], time 7 day): 6%
WBC ([…], time 7 day): 119.7 x10_2/uL
APTT ([…], time 14 day): 23.3 s
Bas ([…], time 14 day): 0%
Eos ([…], time 14 day): 1%
Fbg ([…], time 14 day): 309.4 mg/dL
Hb ([…], time 14 day): 14.5 g/dL
Ht ([…], time 14 day): 41.1%
Lym ([…], time 14 day): 79.8%
MCH ([…], time 14 day): 21.1 pg
MCHC ([…], time 14 day): 35.4%
MCV ([…], time 14 day): 59.5 fL
Mono ([…], time 14 day): 1.4%
Neu ([…], time 14 day): 17.4%
PT ([…], time 14 day): 15.5 s
Plat ([…], time 14 day): 132.9 x10_4/uL
RBC ([…], time 14 day): 690.8 x10_4/ul
Ret ([…], time 14 day): 4.6%
WBC ([…], time 14 day): 104.3 x10_2/uL
APTT ([…], time 28 day): 23.8 s
Bas ([…], time 28 day): 0%
Eos ([…], time 28 day): 1%
Fbg ([…], time 28 day): 294.8 mg/dL
Hb ([…], time 28 day): 15.6 g/dL
Ht ([…], time 28 day): 42.8%
Lym ([…], time 28 day): 84%
MCH ([…], time 28 day): 20.1 pg
MCHC ([…], time 28 day): 36.5%
MCV ([…], time 28 day): 55.2 fL
Mono ([…], time 28 day): 1.6%
Neu ([…], time 28 day): 12.6%
PT ([…], time 28 day): 16.3 s
Plat ([…], time 28 day): 99.5 x10_4/uL
RBC ([…], time 28 day): 776.2 x10_4/ul
Ret ([…], time 28 day): 2.5%
WBC ([…], time 28 day): 118.7 x10_2/uL
KIDNEY_L ([…], time 7 day): 1 g
KIDNEY_R ([…], time 7 day): 1.1 g
KIDNEY_TOTAL ([…], time 7 day): 2.1 g
KIDNEY_L ([…], time 14 day): 1.2 g
KIDNEY_R ([…], time 14 day): 1.2 g
KIDNEY_TOTAL ([…], time 14 day): 2.4 g
KIDNEY_L ([…], time 28 day): 1.3 g
KIDNEY_R ([…], time 28 day): 1.2 g
KIDNEY_TOTAL ([…], time 28 day): 2.5 g
LIVER ([…], time 7 day): 11 g
LIVER ([…], time 14 day): 13.3 g
LIVER ([…], time 28 day): 13.9 g
A/G ([…], time 7 day): 1.2
ALP ([…], time 7 day): 1691 IU/L
ALT ([…], time 7 day): 37.2 IU/L
AST ([…], time 7 day): 68.2 IU/L
BUN ([…], time 7 day): 18.6 mg/dL
CRE ([…], time 7 day): 0.2 mg/dL
Ca ([…], time 7 day): 10.7 mg/dL
Cl ([…], time 7 day): 108 meq/L
DBIL ([…], time 7 day): 0 mg/dL
GLC ([…], time 7 day): 187.8 mg/dL
IP ([…], time 7 day): 7.4 mg/dL
K ([…], time 7 day): 4.1 meq/L
LDH ([…], time 7 day): 156.8 IU/L
Na ([…], time 7 day): 142.6 meq/L
PL ([…], time 7 day): 158 mg/dL
RALB ([…], time 7 day): 3.1 g/dL
TBIL ([…], time 7 day): 0.028 mg/dL
TC ([…], time 7 day): 81.6 mg/dL
TG ([…], time 7 day): 101.2 mg/dL
TP ([…], time 7 day): 5.7 g/dL
gamma-GTP ([…], time 7 day): 1.6 IU/L
A/G ([…], time 14 day): 1.2
ALP ([…], time 14 day): 1333.2 IU/L
ALT ([…], time 14 day): 39.2 IU/L
AST ([…], time 14 day): 65.2 IU/L
BUN ([…], time 14 day): 18.2 mg/dL
CRE ([…], time 14 day): 0.2 mg/dL
Ca ([…], time 14 day): 10.8 mg/dL
Cl ([…], time 14 day): 107.4 meq/L
DBIL ([…], time 14 day): 0 mg/dL
GLC ([…], time 14 day): 191.6 mg/dL
IP ([…], time 14 day): 6.5 mg/dL
K ([…], time 14 day): 4.2 meq/L
LDH ([…], time 14 day): 164 IU/L
Na ([…], time 14 day): 142 meq/L
PL ([…], time 14 day): 153 mg/dL
RALB ([…], time 14 day): 3.2 g/dL
TBIL ([…], time 14 day): 0.018 mg/dL
TC ([…], time 14 day): 75.6 mg/dL
TG ([…], time 14 day): 121.4 mg/dL
TP ([…], time 14 day): 5.9 g/dL
gamma-GTP ([…], time 14 day): 1.8 IU/L
A/G ([…], time 28 day): 1.1
ALP ([…], time 28 day): 1169.6 IU/L
ALT ([…], time 28 day): 38.2 IU/L
AST ([…], time 28 day): 67.6 IU/L
BUN ([…], time 28 day): 18.8 mg/dL
CRE ([…], time 28 day): 0.2 mg/dL
Ca ([…], time 28 day): 10.3 mg/dL
Cl ([…], time 28 day): 107.6 meq/L
DBIL ([…], time 28 day): 0 mg/dL
GLC ([…], time 28 day): 190.6 mg/dL
IP ([…], time 28 day): 5.9 mg/dL
K ([…], time 28 day): 3.9 meq/L
LDH ([…], time 28 day): 137 IU/L
Na ([…], time 28 day): 142.6 meq/L
PL ([…], time 28 day): 140 mg/dL
RALB ([…], time 28 day): 3.2 g/dL
TBIL ([…], time 28 day): 0.004 mg/dL
TC ([…], time 28 day): 71.8 mg/dL
TG ([…], time 28 day): 98.6 mg/dL
TP ([…], time 28 day): 6 g/dL
gamma-GTP ([…], time 28 day): 1 IU/L

From ChEMBL document CHEMBL3885861, “Open TG-GATES”
